Results on three compounds are retold here after US20060281700A1, “SYNERGISTIC MODULATION OF FLT3 KINASE USING AMINOPYRIMIDINES KINASE MODULATORS” (priority 2005, published 2006).

Each structure is given as a SMILES string.

The target in the experiment is T1, wild-type FLT3 phosphorylation in Baf3 FLT3 cells (Homo sapiens, UniProt P36888).
T1 sequence (P36888 27-993): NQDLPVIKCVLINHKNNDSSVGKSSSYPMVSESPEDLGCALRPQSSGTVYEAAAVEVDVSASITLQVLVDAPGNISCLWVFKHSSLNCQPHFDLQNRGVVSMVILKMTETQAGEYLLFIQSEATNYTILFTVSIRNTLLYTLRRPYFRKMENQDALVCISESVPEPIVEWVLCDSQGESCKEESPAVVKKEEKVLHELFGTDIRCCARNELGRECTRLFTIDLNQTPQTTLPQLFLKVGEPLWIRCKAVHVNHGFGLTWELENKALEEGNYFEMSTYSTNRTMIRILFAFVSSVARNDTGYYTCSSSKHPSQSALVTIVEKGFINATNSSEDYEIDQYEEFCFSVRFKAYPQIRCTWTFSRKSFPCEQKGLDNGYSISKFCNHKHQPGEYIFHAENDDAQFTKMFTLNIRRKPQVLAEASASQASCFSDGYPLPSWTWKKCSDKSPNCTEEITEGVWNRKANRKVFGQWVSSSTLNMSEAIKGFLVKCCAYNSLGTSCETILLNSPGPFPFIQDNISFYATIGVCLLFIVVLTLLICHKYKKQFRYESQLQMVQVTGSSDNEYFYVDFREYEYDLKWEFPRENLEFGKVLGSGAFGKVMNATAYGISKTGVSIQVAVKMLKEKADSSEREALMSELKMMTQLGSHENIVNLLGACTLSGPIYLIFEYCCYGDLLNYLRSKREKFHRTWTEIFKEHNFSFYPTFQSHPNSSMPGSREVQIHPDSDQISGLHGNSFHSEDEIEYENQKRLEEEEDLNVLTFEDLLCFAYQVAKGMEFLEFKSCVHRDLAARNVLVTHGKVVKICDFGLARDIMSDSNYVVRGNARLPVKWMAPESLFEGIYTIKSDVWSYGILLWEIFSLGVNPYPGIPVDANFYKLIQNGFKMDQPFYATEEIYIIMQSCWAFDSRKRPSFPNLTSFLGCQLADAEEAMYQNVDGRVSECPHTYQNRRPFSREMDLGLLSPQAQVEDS
Put plainly: Cell-Based FLT3 Receptor Elisa. Conditions: 1 hour compound, 100 ng/mL Flt ligand 10 min; uncertainty ±20%. The method, then: Cell-Based FLT3 Receptor Elisa
Specific cellular inhibition of FLT ligand-induced wild-type FLT3 phosphorylation was measured in the following manner: Baf3 FLT3 cells overexpressing the FLT3 receptor were obtained from Dr. Michael Heinrich (Oregon Health and Sciences University). The Baf3 FLT3 cell lines were created by stable transfection of parental Baf3 cells (a murine B cell lymphoma line dependent on the cytokine IL-3 for growth) with wild-type FLT3. Cells were selected for their ability to grow in the absence of IL-3 and in the presence of FLT3 ligand.
Baf3 cells were maintained in RPMI 1640 with 10% FBS, penn/strep and 10 ng/ml FLT ligand at 37° C., 5% CO2. To measure direct inhibition of the wild-type FLT3 receptor activity and phosphorylation a sandwich ELISA method was developed similar to those developed for other RTKs (see Sadick, M D, Sliwkowski, M X, Nuijens, A, Bald, L, Chiang, N, Lofgren, J A, Wong W L T. Analysis of Heregulin-Induced ErbB2 Phosphorylation with a High-Throughput Kinase Receptor Activation Enzyme-Linked Immunsorbent Assay, Analytical Biochemistry. 1996; 235:207-214 and Baumann C A, Zeng L, Donatelli R R, Maroney A C. Development of a quantitative, high-throughput cell-based enzyme-linked immunosorbent assay for detection of colony-stimulating factor-1 receptor tyrosine kinase inhibitors. J Biochem Biophys Methods. 2004; 60:69-79.). 200 μL of Baf3FLT3 cells (1×10^6/mL) were plated in 96 well dishes in RPMI 1640 with 0.5% serum and 0.01 ng/mL IL-3 for 16 hours prior to 1 hour compound or DMSO vehicle incubation. Cells were treated with 100 ng/mL Flt ligand (R&D Systems Cat# 308-FK) for 10 min. at 37° C. Cells were pelleted, washed and lysed in 100 ul lysis buffer (50 mM Hepes, 150 mM NaCl, 10% Glycerol, 1% Triton-X-100, 10 mM NaF, 1 mM EDTA, 1.5 mM MgCl2, 10 mM NaPyrophosphate) supplemented with phosphatase (Sigma Cat# P2850) and protease inhibitors (Sigma Cat #P8340). Lysates were cleared by centrifugation at 1000×g for 5 minutes at 4° C. Cell lysates were transferred to white wall 96 well microtiter (Costar #9018) plates coated with 50 ng/well anti-FLT3 antibody (Santa Cruz Cat# sc-480) and blocked with SeaBlock reagent (Pierce Cat#37527). Lysates were incubated at 4° C. for 2 hours. Plates were washed 3× with 200 ul/well PBS/0.1% Triton-X-100. Plates were then incubated with 1:8000 dilution of HRP-conjugated anti-phosphotyrosine antibody (Clone 4G10, Upstate Biotechnology Cat#16-105) for 1 hour at room temperature. Plates were washed 3× with 200 ul/well PBS/0.1% Triton-X-100. Signal detection with Super Signal Pico reagent (Pierce Cat#37070) was done according to manufacturer's instruction with a Berthold microplate luminometer. All data points are an average of triplicate samples. […] Inhibition and IC50 data analysis was done with GraphPad Prism using a non-linear regression fit with a multiparamater, sigmoidal dose-response (variable slope) equation.

`CO/N=C/c1c(N)ncnc1N1CCC(NC(=O)Nc2ccc(Oc3ccccc3)cc2)CC1` [Number 26, 1-{1-[6-Amino-5-(methoxyimino-methyl)-pyrimidin-4-yl]-piperidin-4-yl}-3-(4-phenoxy-phenyl)-urea] had an IC50 of 175 nM.

Turning to `CCNC(=O)NCCO/N=C/c1c(N)ncnc1N1CCC(NC(=O)Nc2ccc(C(C)C)cc2)C1` (stereo not drawn) [Number 28, 1-[1-(6-Amino-5-{[2-(3-ethyl-ureido)-ethoxyimino]-methyl}-pyrimidin-4-yl)-pyrrolidin-3-yl]-3-(4-isopropyl-phenyl)-urea], 2300 nM corresponded to half-maximal inhibition (IC50).

Regarding `CC(C)c1ccc(NC(=O)NC2CCN(c3ncnc(N)c3/C=N/OCC(=O)N3CCOCC3)C2)cc1` (stereo not drawn) [Number 29, 1-(1-{6-Amino-5-[(2-morpholin-4-yl-2-oxo-ethoxyimino)-methyl]-pyrimidin-4-yl}-pyrrolidin-3-yl)-3-(4-isopropyl-phenyl)-urea], the IC50 was 2400 nM.
